Several values for one entry are separate records, joined by “and”; a condition that tells them apart may be missing. Equal values may be shown once. Toxic doses and inconclusive results are not listed. Peptide text beside a SMILES is read from it. * marks the point of attachment. Cbz = O=C(OCc1ccccc1)*; OtBu = CC(C)(C)O*
Tested on: P388 leukemia ip, CD2F1 mice, survival T/C
Test: NCI In Vivo Anticancer Drug Screen. Data for tumor model P388 Leukemia (intraperitoneal) in CD2F1 (CDF1) mice
Conditions: endpoint: median survival time, higher = longer survival
In short: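 Mice carrying the transplanted tumor received test compound or vehicle. Survival was recorded in each group, and the value is the treated-group measurement divided by that of the vehicle-treated control group.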

[1] = dose: 50.0 mg/kg/injection, schedule: Q01DX005 (ip), vehicle: Klucel (hydroxypropylcellulose) (HPC)
[2] = dose: 100.0 mg/kg/injection, schedule: Q01DX005 (ip), vehicle: Klucel (hydroxypropylcellulose) (HPC)
[3] = dose: 25.0 mg/kg/injection, schedule: Q01DX009 (ip), vehicle: Klucel (hydroxypropylcellulose) (HPC)
[4] = dose: 50.0 mg/kg/injection, schedule: Q01DX009 (ip), vehicle: Klucel (hydroxypropylcellulose) (HPC)
[5] = dose: 50.0 mg/kg/injection, schedule: Q01DX005 (ip), vehicle: saline with Tween-80
[6] = dose: 100.0 mg/kg/injection, schedule: Q01DX005 (ip), vehicle: saline with Tween-80
[7] = dose: 200.0 mg/kg/injection, schedule: Q01DX005 (ip), vehicle: saline with Tween-80

[N-]=[N+]=NC(=O)Nc1cccc(C(F)(F)F)c1
T/C (dose: 15.0 mg/kg/injection, schedule: Q01DX005 (ip), vehicle: Klucel + Tween-80): 103 % of control
T/C (dose: 30.0 mg/kg/injection, schedule: Q01DX005 (ip), vehicle: Klucel + Tween-80): 96 % of control
T/C (dose: 60.0 mg/kg/injection, schedule: Q01DX005 (ip), vehicle: Klucel + Tween-80): 100 % of control and 93 % of control

O=C(Cc1ccccc1)c1c[nH]c2c(O)ccc(O)c12
T/C (dose: 50.0 mg/kg/injection, schedule: Q04DX002 (ip), vehicle: Klucel (hydroxypropylcellulose) (HPC)): 104 % of control
T/C (dose: 100.0 mg/kg/injection, schedule: Q04DX002 (ip), vehicle: Klucel (hydroxypropylcellulose) (HPC)): 108 % of control
T/C (dose: 200.0 mg/kg/injection, schedule: Q04DX002 (ip), vehicle: Klucel (hydroxypropylcellulose) (HPC)): 111 % of control

CC(C)(C)OC(=O)NC(CCCNC(=O)OCc1ccccc1)C(=O)O (configuration not stated)
T/C [1]: 100 % of control
T/C [2]: 100 % of control
T/C (dose: 200.0 mg/kg/injection, schedule: Q01DX005 (ip), vehicle: Klucel (hydroxypropylcellulose) (HPC)): 99 % of control

O=C1c2cc(Cl)ccc2-c2c(NC(=O)C(Cl)Cl)cc(Cl)cc21
T/C (dose: 12.5 mg/kg/injection, schedule: Q01DX009 (ip), vehicle: saline with Tween-80): 95 % of control
T/C [3]: 100 % of control
T/C (dose: 25.0 mg/kg/injection, schedule: Q01DX009 (ip), vehicle: saline with Tween-80): 95 % of control
T/C [4]: 88 % of control
T/C (dose: 50.0 mg/kg/injection, schedule: Q01DX009 (ip), vehicle: saline with Tween-80): 100 % of control

CC1(C(N)C(=O)O)CC(Cl)=NO1 (configuration not stated)
T/C (dose: 4.0 mg/kg/injection, schedule: Q01DX009 (ip), vehicle: other): 108 % of control
T/C (dose: 8.0 mg/kg/injection, schedule: Q01DX009 (ip), vehicle: other): 103 % of control
T/C (dose: 16.0 mg/kg/injection, schedule: Q01DX009 (ip), vehicle: other): 100 % of control
T/C (dose: 32.0 mg/kg/injection, schedule: Q01DX009 (ip), vehicle: other): 103 % of control
T/C (dose: 64.0 mg/kg/injection, schedule: Q01DX009 (ip), vehicle: other): 103 % of control
T/C (dose: 128.0 mg/kg/injection, schedule: Q01DX009 (ip), vehicle: other): 94 % of control

C=C(Br)C(=NC(C)(C)C)Nc1cccc(Cl)c1
T/C [1]: 102 % of control
T/C [2]: 107 % of control

C1=C2OCOC2=CC2Cc3cc4c(cc3/C=C3\CC5=C(C=C3/C=C/12)OCO5)OCO4 (configuration not stated)
T/C [5]: 92 % of control
T/C [6]: 93 % of control
T/C [7]: 98 % of control

COCCCNP(=S)(N1CC1)N1CC1
T/C (dose: 3.0 mg/kg/injection, schedule: Q04DX003 (ip), vehicle: saline): 110 % of control
T/C (dose: 6.0 mg/kg/injection, schedule: Q04DX003 (ip), vehicle: saline): 115 % of control
T/C (dose: 12.5 mg/kg/injection, schedule: Q01DX009 (ip), vehicle: saline): 170 % of control
T/C (dose: 25.0 mg/kg/injection, schedule: Q04DX003 (ip), vehicle: saline with Tween-80): 186 % of control

O=[N+](N=c1ccn([O-])cc1)c1cc[n+]([O-])cc1
T/C (dose: 1.56 mg/kg/injection, schedule: Q01DX009 (ip), vehicle: DMSO): 107 % of control
T/C (dose: 3.0 mg/kg/injection, schedule: Q01DX009 (ip), vehicle: other): 107 % of control
T/C (dose: 3.12 mg/kg/injection, schedule: Q01DX009 (ip), vehicle: DMSO): 100 % of control
T/C (dose: 6.0 mg/kg/injection, schedule: Q01DX009 (ip), vehicle: other): 102 % of control
T/C (dose: 6.25 mg/kg/injection, schedule: Q01DX009 (ip), vehicle: DMSO): 107 % of control
T/C (dose: 12.5 mg/kg/injection, schedule: Q01DX009 (ip), vehicle: DMSO): 100 % of control
T/C (dose: 12.5 mg/kg/injection, schedule: Q01DX009 (ip), vehicle: other): 98 % of control
T/C (dose: 25.0 mg/kg/injection, schedule: Q01DX009 (ip), vehicle: DMSO): 100 % of control
T/C (dose: 25.0 mg/kg/injection, schedule: Q01DX009 (ip), vehicle: other): 109 % of control
T/C (dose: 50.0 mg/kg/injection, schedule: Q01DX009 (ip), vehicle: other): 109 % of control

Cc1csc(NN=O)n1
T/C (dose: 1.56 mg/kg/injection, schedule: Q01DX009 (ip), vehicle: water): 98 % of control
T/C (dose: 3.12 mg/kg/injection, schedule: Q01DX009 (ip), vehicle: water): 104 % of control and 95 % of control
T/C (dose: 6.25 mg/kg/injection, schedule: Q01DX009 (ip), vehicle: water): 105 % of control and 96 % of control
T/C (dose: 12.5 mg/kg/injection, schedule: Q01DX009 (ip), vehicle: water): 100 % of control and 102 % of control
T/C (dose: 25.0 mg/kg/injection, schedule: Q01DX009 (ip), vehicle: water): 99 % of control and 102 % of control
T/C (dose: 50.0 mg/kg/injection, schedule: Q01DX009 (ip), vehicle: water): 111 % of control

C=C1CC(O)C2C(C[Se]c3ccccc3)C(=O)O[C@@H]2C2C(=C)[C@@H](O)CC12 (some centres not stated)
T/C (dose: 60.0 mg/kg/injection, schedule: Q01DX005 (ip), vehicle: saline with Tween-80): 96 % of control
T/C (dose: 120.0 mg/kg/injection, schedule: Q01DX005 (ip), vehicle: saline with Tween-80): 100 % of control
T/C (dose: 240.0 mg/kg/injection, schedule: Q01DX005 (ip), vehicle: saline with Tween-80): 99 % of control

CCCCC#CCOCC(O)CCl (configuration not stated)
T/C (dose: 12.5 mg/kg/injection, schedule: Q01DX009 (ip), vehicle: Klucel (hydroxypropylcellulose) (HPC)): 100 % of control
T/C [3]: 100 % of control
T/C [4]: 98 % of control
T/C (dose: 100.0 mg/kg/injection, schedule: Q01DX009 (ip), vehicle: Klucel (hydroxypropylcellulose) (HPC)): 100 % of control
T/C (dose: 200.0 mg/kg/injection, schedule: Q01DX009 (ip), vehicle: Klucel (hydroxypropylcellulose) (HPC)): 103 % of control

COc1ccc2c(NCCCCCCCCNc3c4ccc(OC)cc4nc4ccc(Cl)cc34)c3cc(Cl)ccc3nc2c1
T/C (dose: 0.63 mg/kg/injection, schedule: Q01DX009 (ip), vehicle: other): 91 % of control
T/C (dose: 1.25 mg/kg/injection, schedule: Q01DX009 (ip), vehicle: other): 105 % of control
T/C (dose: 2.5 mg/kg/injection, schedule: Q01DX009 (ip), vehicle: other): 106 % of control
T/C (dose: 5.0 mg/kg/injection, schedule: Q01DX009 (ip), vehicle: other): 118 % of control

CCC1(c2ccc(-c3ccccc3)cc2)OC(OC(=O)NC)C=CC1=O (configuration not stated)
T/C (dose: 6.25 mg/kg/injection, schedule: Q01DX009 (ip), vehicle: Klucel (hydroxypropylcellulose) (HPC)): 98 % of control

COC(=O)C12CC(CCC1C13CCC4(OCCO4)C(C)(C)C1C(=O)OC3)C(C)C2O (configuration not stated)
T/C (dose: 100.0 mg/kg/injection, schedule: Q04DX002 (ip), vehicle: saline with Tween-80): 97 % of control
T/C (dose: 200.0 mg/kg/injection, schedule: Q04DX002 (ip), vehicle: saline with Tween-80): 94 % of control
T/C (dose: 400.0 mg/kg/injection, schedule: Q04DX002 (ip), vehicle: saline with Tween-80): 100 % of control

COc1cc2c(c(OC)c1OC)-c1ccc(O)c(=O)cc1C(N)CC2 (configuration not stated)
T/C (dose: 3.12 mg/kg/injection, schedule: Q01DX008 (ip), vehicle: saline): 101 % of control and 97 % of control
T/C (dose: 6.25 mg/kg/injection, schedule: Q01DX008 (ip), vehicle: saline): 100 % of control and 102 % of control
T/C (dose: 12.5 mg/kg/injection, schedule: Q01DX008 (ip), vehicle: saline): 102 % of control and 105 % of control
T/C (dose: 25.0 mg/kg/injection, schedule: Q01DX008 (ip), vehicle: saline): 102 % of control and 105 % of control
T/C (dose: 50.0 mg/kg/injection, schedule: Q01DX008 (ip), vehicle: saline): 105 % of control and 110 % of control
T/C (dose: 100.0 mg/kg/injection, schedule: Q01DX008 (ip), vehicle: saline): 109 % of control and 113 % of control

Cc1c2ccn(Cc3ccccc3)cc2c(C)c2c1nc1ccccc12
T/C (dose: 19.25 mg/kg/injection, schedule: Q04DX002 (ip), vehicle: saline with Tween-80): 121 % of control
T/C (dose: 38.5 mg/kg/injection, schedule: Q04DX002 (ip), vehicle: saline with Tween-80): 113 % of control

CC(C)(C)OC(=O)CCC(NC(=O)C(CCC(=O)OC(C)(C)C)NC(=O)C(CCC(=O)OC(C)(C)C)NC(=O)OCc1ccccc1)C(=O)O (configuration not stated) (Cbz-Glu(OtBu)-Glu(OtBu)-Glu(OtBu)-OH; configuration not given here)
T/C [5]: 104 % of control
T/C [6]: 100 % of control
T/C [7]: 96 % of control
